Measurements reported in patent publication US9242996B2 (Novartis AG, priority 2013, dated 2016).

The molecules below were run against activated ERK2 (Homo sapiens (Human), UniProt P28482) (assay: Activated ERK2 kinase assay, ERK2 New conditions (AlphaScreen, ERKtide phosphorylation)). Details: 0.25 nM ERK2, 200 nM ERKtide peptide, 35 μM ATP, 30 min preincubation.
Format: biochemical
Procedure, shortened: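 0.25 nM ERK2 preincubated 30 min with compound, then reacted 2–3 h at ambient temperature with 200 nM ERKtide and 35 µM ATP (final) in HEPES pH 7.5 buffer. EDTA stop; phospho-peptide detected by AlphaScreen after overnight incubation; IC50 from four-parameter fit.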

Chain of activated ERK2 (P28482 whole entry): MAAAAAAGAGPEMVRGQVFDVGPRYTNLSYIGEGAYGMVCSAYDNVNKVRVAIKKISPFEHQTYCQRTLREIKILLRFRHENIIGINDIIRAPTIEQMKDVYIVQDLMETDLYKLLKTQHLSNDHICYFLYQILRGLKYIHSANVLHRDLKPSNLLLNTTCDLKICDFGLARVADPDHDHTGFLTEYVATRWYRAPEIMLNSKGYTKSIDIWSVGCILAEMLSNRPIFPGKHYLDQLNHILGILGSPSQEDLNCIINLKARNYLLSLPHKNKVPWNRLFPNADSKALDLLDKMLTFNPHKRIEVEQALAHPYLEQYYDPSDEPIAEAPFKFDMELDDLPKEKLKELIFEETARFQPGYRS

Row | SMILES | IC50 [nM]
1 | C[C@@H](NC(=O)c1ccc(-c2nc([C@H]3CC[C@@H](O)CC3)cnc2N)cc1F)c1cccc(Cl)c1 [Example 416, 4-(3-amino-6-((1s,4S)-4-hydroxy-cyclohexyl)pyrazin-2-yl)-N-((R)-1-(3-chlorophenyl)ethyl)-2-fluorobenzamide] | 5.68
2 | N#CCc1cnc(N)c(-c2ccc(C(=O)N[C@H](CO)c3ccccc3)c(F)c2)c1 [Example 134, (S)-4-(2-amino-5-(cyanomethyl)pyridin-3-yl)-2-fluoro-N-(2-hydroxy-1-phenylethyl)benzamide] | 202
3 | CS(=O)(=O)N1CCC(c2cnc(N)c(-c3ccc(C(=O)N[C@H](CO)c4ccccc4)c(F)c3)n2)CC1 [Example 56, (S)-4-(3-amino-6-(1-(methylsulfonyl)piperidin-4-yl)pyrazin-2-yl)-2-fluoro-N-(2-hydroxy-1-phenylethyl)benzamide] | 3.89
4 | Cc1noc(C)c1-c1cnc(N)c(-c2ccc(C(=O)N[C@H](CO)c3ccccc3)c(F)c2)n1 [Example 156, (S)-4-(3-amino-6-(3,5-dimethylisoxazol-4-yl)pyrazin-2-yl)-2-fluoro-N-(2-hydroxy-1-phenylethyl)benzamide] | 3.32
5 | COC(=O)[C@@H]1C[C@H](c2cnc(N)c(-c3ccc(C(=O)N[C@H](CO)c4cccc(Cl)c4)c(F)c3)c2)CN1 [Example 221, (2S,4R)-methyl 4-(6-amino-5-(4-(((S)-1-(3-chlorophenyl)-2-hydroxyethyl)carbamoyl)-3-fluorophenyl)pyridin-3-yl)pyrrolidine-2-carboxylate] | 30.6
6 | Cn1cc(-c2cnc(N)c(-c3ccc(C(=O)NCc4cccc(Br)c4)c(F)c3)c2)cn1 [Example 246, 4-(2-amino-5-(1-methyl-1H-pyrazol-4-yl)pyridin-3-yl)-N-(3-bromobenzyl)-2-fluorobenzamide] | 1.52
7 | Nc1ncc(C2CCOCC2)nc1-c1ccc(C(=O)N[C@H](CF)c2ccccc2)cc1 [Example 327, (S)-4-(3-amino-6-(tetrahydro-2H-pyran-4-yl)pyrazin-2-yl)-N-(2-fluoro-1-phenylethyl) benzamide] | 54.2
8 | C[C@@H](NC(=O)c1ccc(-c2cc(C3CC3)cnc2N)cc1F)c1cc(F)cc(S(C)(=O)=O)c1 [Example 288, (R)-4-(2-amino-5-cyclo-propylpyridin-3-yl)-2-fluoro-N-(1-(3-fluoro-5-(methylsulfonyl)phenyl)ethyl) benzamide] | 2.03
9 | Cc1nn(C)cc1-c1cnc(N)c(-c2ccc(C(=O)N[C@H](CN)c3ccccc3)c(F)c2)c1 [Example 153, (S)-N-(2-amino-1-phenylethyl)-4-(2-amino-5-(1,3-dimethyl-1H-pyrazol-4-yl)pyridin-3-yl)-2-fluorobenzamide] | 0.38
10 | Nc1ncc(C2CCOCC2)nc1-c1ccc(C(=O)N[C@H]2CCCN(Cc3ccccc3F)C2)c(F)c1 [Example 125, (S)-4-(3-amino-6-(tetrahydro-2H-pyran-4-yl)pyrazin-2-yl)-2-fluoro-N-(1-(2-fluorobenzyl)piperidin-3-yl)benzamide] | 2230
11 | Nc1ncc([C@@H]2CN[C@H](CO)C2)cc1-c1ccc(C(=O)N[C@H](CO)c2cccc(Cl)c2)c(F)c1 [Example 7, 4-(2-amino-5-((3R,5S)-5-(hydroxymethyl)pyrrolidin-3-yl)pyridin-3-yl)-N—((S)-1-(3-chlorophenyl)-2-hydroxyethyl)-2-fluorobenzamide] | 65.2
12 | Nc1ncc(-c2ccoc2)nc1-c1ccc(C(=O)N[C@H](CO)c2ccccc2)cc1 [Example 138] | 13.3
13 | Nc1ncc(C2CCS(=O)(=O)CC2)cc1-c1ccc(C(=O)NCc2ccccc2)c(F)c1 [Example 78, 4-(2-amino-5-(1,1-dioxidotetrahydro-2H-thiopyran-4-yl)pyridin-3-yl)-N-benzyl-2-fluorobenzamide] | 172
14 | Cn1nccc1-c1cnc(N)c(-c2ccc(C(=O)N[C@H](CO)c3cccc(F)c3)c(F)c2)c1 [Example 229, (S)-4-(2-amino-5-(1-methyl-1H-pyrazol-5-yl)pyridin-3-yl)-2-fluoro-N-(1-(3-fluorophenyl)-2-hydroxyethyl) benzamide] | 1.07
15 | Cc1nn(C)cc1-c1cnc(N)c(-c2ccc(C(=O)N[C@H](CO)c3cccc(S(C)(=O)=O)c3)c(F)c2)c1 [Example 284, (S)-4-(2-amino-5-(1,3-dimethyl-1H-pyrazol-4-yl)pyridin-3-yl)-2-fluoro-N-(2-hydroxy-1-(3-(methylsulfonyl)phenyl)ethyl) benzamide] | 0.296
16 | Cn1cc(-c2cnc(N)c(-c3ccc(C(=O)NCc4cccc(Cl)n4)c(F)c3)c2)cn1 [Example 236, 4-(2-amino-5-(1-methyl-1H-pyrazol-4-yl)pyridin-3-yl)-N-((6-chloropyridin-2-yl)methyl)-2-fluorobenzamide] | 56.6
17 | Cn1cc(-c2cnc(N)c(-c3ccc(C(=O)N[C@H](CO)c4ccccc4)c(F)c3)n2)cn1 [Example 148, (S)-4-(3-amino-6-(1-methyl-1H-pyrazol-4-yl)pyrazin-2-yl)-2-fluoro-N-(2-hydroxy-1-phenylethyl)benzamide] | 1.9
18 | CN1CC(c2cnc(N)c(-c3ccc(C(=O)N[C@H](CO)c4ccccc4)c(F)c3)c2)CC1=O (stereo partly drawn) [Example 41, 4-(2-amino-5-(1-methyl-5-oxopyrrolidin-3-yl)pyridin-3-yl)-2-fluoro-N—((S)-2-hydroxy-1-phenylethyl)benzamide] | 51
19 | Cc1oncc1-c1cnc(N)c(-c2ccc(C(=O)N[C@H](CO)c3cccc(F)c3)c(F)c2)c1 [Example 165, (S)-4-(2-amino-5-(5-methylisoxazol-4-yl)pyridin-3-yl)-2-fluoro-N-(1-(3-fluorophenyl)-2-hydroxyethyl)benzamide] | 390
20 | Nc1ncc([C@H]2C[C@H]3COC(=S)N3C2)cc1-c1ccc(C(=O)N[C@H](CO)c2cccc(Cl)c2)c(F)c1 [Example 11, 4-(2-amino-5-((6R,7aS)-3-thioxohexahydropyrrolo[1,2-c]oxazol-6-yl)pyridin-3-yl)-N—((S)-1-(3-chlorophenyl)-2-hydroxyethyl)-2-fluorobenzamide] | 3.77
21 | CN1CC(c2cnc(N)c(-c3ccc(C(=O)N[C@H](CO)c4cccc(Cl)c4)c(F)c3)c2)CC1=O (stereo partly drawn) [Example 42, 4-(2-amino-5-(1-methyl-5-oxopyrrolidin-3-yl)pyridin-3-yl)-N—((S)-1-(3-chlorophenyl)-2-hydroxyethyl)-2-fluorobenzamide] | 5.44
22 | Cn1cc(-c2cnc(N)c(-c3ccc(C(=O)NC4CC4c4ccccc4)c(F)c3)n2)cn1 (centres unmarked) [Example 155, 4-(3-amino-6-(1-methyl-1H-pyrazol-4-yl)pyrazin-2-yl)-2-fluoro-N-(2-phenylcyclopropyl)benzamide] | 1.89
23 | Nc1nccnc1-c1ccc(C(=O)NCc2ccccc2)cc1 [Example 46, 4-(3-aminopyrazin-2-yl)-N-benzylbenzamide] | 4790
